From US11213499B1, “Use of 3,3′-diselenodipropionic acid (DSePA) as an anticancer agent” (Secretary, Department of Atomic Energy, priority 2020, dated 2022)

System: human A549 xenograft
Experiment: Anti-tumor effect in human A549 xenograft model
Type: in vivo
Settings: for mortality: study period of 30 days
Method: These xenografts representative of NSCLC and CML respectively are considered to be highly aggressive and resistant to chemotherapy treatment. Therefore, any new chemotherapy agent against these cancers is very much sought. For the experiment, a total of 12 mice bearing A549 or K562 tumors of volume in the range of ˜50 mm^3 were divided into two groups (I & II), each group comprising of six mice. […] The group II was administered DSePA daily dissolved in sterile saline through oral route at a dosage of 1 mg/Kg body weight. The tumor volume and body weight of mice from each group were monitored daily for a total period of 30 days from the day of start. The animals were also checked for mortality if any throughout the study period. The experiment in A549 tumor was repeated three times (n=18 for each group) and the experiment in K562 tumor was repeated two times (n=12 for each group). […] This is the first study to show the anticancer activity of DSePA per se using xenograft model of human lung cancer (A549) and human leukemia (K562) cells in mice. Discovery of the application of the anticancer activity of DSePA is a novel invention in context of its probable usage in treatment for lung and leukemia cancer. More specifically the invention proposes a treatment regime and route of administering DSePA to inhibit the growth of human NSCLC (A549) and CML (K562).
For the optimization of the oral dosage of DSePA, a total of 24 mice bearing A549 or K562 xenograft of volume in the range of ˜50 mm^3 were divided into four groups (I-IV), each group comprising of six mice. […] The groups II, III and IV were administered DSePA dissolved in sterile saline through oral route at the dosage of 1, 2.5 and 5 mg/kg body weight respectively. The administration of DSePA was performed daily for 4 weeks. The tumor volume and body weight of mice from each group were monitored daily for a total period of 30 days from the day of start. The animals were also checked for mortality if any throughout the study period.
Animal maintenance—All animal studies were approved by the Institutional Animal Ethics Committee. Animals were housed under standard conditions (20±2° C., 65-70% humidity, 12 h/12 h day/night cycle, balanced laboratory diet and tap water ad libitum.
Xenograft tumor model-A549 and K562 tumor models were developed by Anticancer Drug Screening Facility of Advanced Centre for Treatment, Research and Education in Cancer (ACTREC), India. Briefly, Male/female NOD-SCID aged 6-7 weeks were housed in the laboratory animal facility of ACTREC. Donor mice carrying K562 or A549 xenografts were developed by injecting 2×10^6 cells in 100 μl of DMEM/RPMI, subcutaneously in their right flank. When tumors attained the size of approximately 2000 mm^3, the animals were sacrificed. Tumors were obtained and further cut into 2-3 mm fragments and implanted subcutaneously in the right flank of 6-7 weeks old recipient SCID mice. Tumors were allowed to grow to a size of approximately 50 mm^3 following which animals were divided into groups of six animals each for evaluation. A fresh DSePA solution was prepared by dissolution in sterile saline before each administration by intraperitoneal/oral route. The tumor efficacy of DSePA was determined by monitoring parameters like tumor volume and T/C. Tumors were assumed spherical and volume was calculated using following equations (1 & 2): […]
Where d1 (mm) and d2 (mm) are diameters measured in two perpendicular planes. T/C is defined as the ratio of the mean tumor volume of DSePA treated groups with the mean tumor volume of control group on the day of observation.

[1] = 1 mg/kg body weight daily oral, day 1
[2] = 1 mg/kg body weight daily oral, day 5
[3] = 1 mg/kg body weight daily oral, day 9
[4] = 1 mg/kg body weight daily oral, day 12
[5] = 1 mg/kg body weight daily oral, day 15
[6] = 1 mg/kg body weight daily oral, day 18
[7] = 1 mg/kg body weight daily oral, day 21
[8] = 1 mg/kg body weight daily oral, day 24
[9] = 1 mg/kg body weight daily oral, day 27
[10] = 1 mg/kg body weight daily oral, day 31
[11] = 2.5 mg/kg body weight daily oral, day 1
[12] = 2.5 mg/kg body weight daily oral, day 5
[13] = 2.5 mg/kg body weight daily oral, day 9
[14] = 2.5 mg/kg body weight daily oral, day 12
[15] = 2.5 mg/kg body weight daily oral, day 15
[16] = 2.5 mg/kg body weight daily oral, day 18
[17] = 2.5 mg/kg body weight daily oral, day 21
[18] = 2.5 mg/kg body weight daily oral, day 24
[19] = 2.5 mg/kg body weight daily oral, day 27
[20] = 2.5 mg/kg body weight daily oral, day 31
[21] = 5 mg/kg body weight daily oral, day 1
[22] = 5 mg/kg body weight daily oral, day 5
[23] = 5 mg/kg body weight daily oral, day 9
[24] = 5 mg/kg body weight daily oral, day 12
[25] = 5 mg/kg body weight daily oral, day 15
[26] = 5 mg/kg body weight daily oral, day 18
[27] = 5 mg/kg body weight daily oral, day 21
[28] = 5 mg/kg body weight daily oral, day 24
[29] = 5 mg/kg body weight daily oral, day 27
[30] = 5 mg/kg body weight daily oral, day 31

## O=C(O)CC[Se][Se]CCC(=O)O [DSePA, 3,3′-diselenodipropionic acid]
1 mg/Kg body weight daily oral, three independent experiments
  tumor growth inhibition vs control: significantly (P<0.05) inhibited the growth
1 mg/Kg orally daily, end of study period (30 days), n=18, P=0.0009
  overall reduction (relative tumor volume vs tumor control): ~2 folds
1 mg/Kg orally daily, three independent studies
  mortality: did not show any mortality
[1]
  % S (Survival): 100%
  RTV (Relative Tumor Volume): 1
  T/C (T (test)/C (control)): 1
[2]
  % S (Survival): 100%
  RTV (Relative Tumor Volume): 1.23
  T/C (T (test)/C (control)): 0.98
[3]
  % S (Survival): 100%
  RTV (Relative Tumor Volume): 1.64
  T/C (T (test)/C (control)): 0.98
[4]
  % S (Survival): 100%
  RTV (Relative Tumor Volume): 1.83
  T/C (T (test)/C (control)): 0.87
[5]
  % S (Survival): 100%
  RTV (Relative Tumor Volume): 1.80
  T/C (T (test)/C (control)): 0.76
[6]
  % S (Survival): 100%
  RTV (Relative Tumor Volume): 2.36
  T/C (T (test)/C (control)): 0.71
[7]
  % S (Survival): 100%
  RTV (Relative Tumor Volume): 2.47
  T/C (T (test)/C (control)): 0.68
[8]
  % S (Survival): 100%
  RTV (Relative Tumor Volume): 2.66
  T/C (T (test)/C (control)): 0.52
[9]
  % S (Survival): 100%
  RTV (Relative Tumor Volume): 2.94
  T/C (T (test)/C (control)): 0.47
[10]
  % S (Survival): 100%
  RTV (Relative Tumor Volume): 3.70
  T/C (T (test)/C (control)): 0.45
[11]
  % S (Survival): 100%
  RTV (Relative Tumor Volume): 1
  T/C (T (test)/C (control)): 1
[12]
  % S (Survival): 100%
  RTV (Relative Tumor Volume): 0.99
  T/C (T (test)/C (control)): 0.79
[13]
  % S (Survival): 100%
  RTV (Relative Tumor Volume): 1.10
  T/C (T (test)/C (control)): 0.66
[14]
  % S (Survival): 100%
  RTV (Relative Tumor Volume): 1.25
  T/C (T (test)/C (control)): 0.59
[15]
  % S (Survival): 100%
  RTV (Relative Tumor Volume): 1.03
  T/C (T (test)/C (control)): 0.43
[16]
  % S (Survival): 100%
  RTV (Relative Tumor Volume): 1.31
  T/C (T (test)/C (control)): 0.39
[17]
  % S (Survival): 100%
  RTV (Relative Tumor Volume): 1.40
  T/C (T (test)/C (control)): 0.38
[18]
  % S (Survival): 100%
  RTV (Relative Tumor Volume): 1.81
  T/C (T (test)/C (control)): 0.35
[19]
  % S (Survival): 100%
  RTV (Relative Tumor Volume): 1.96
  T/C (T (test)/C (control)): 0.31
[20]
  % S (Survival): 100%
  RTV (Relative Tumor Volume): 2.84
  T/C (T (test)/C (control)): 0.35
[21]
  % S (Survival): 100%
  RTV (Relative Tumor Volume): 1
  T/C (T (test)/C (control)): 1
[22]
  % S (Survival): 100%
  RTV (Relative Tumor Volume): 0.94
  T/C (T (test)/C (control)): 0.75
[23]
  % S (Survival): 100%
  RTV (Relative Tumor Volume): 1.29
  T/C (T (test)/C (control)): 0.76
[24]
  % S (Survival): 100%
  RTV (Relative Tumor Volume): 1.30
  T/C (T (test)/C (control)): 0.62
[25]
  % S (Survival): 100%
  RTV (Relative Tumor Volume): 1.19
  T/C (T (test)/C (control)): 0.50
[26]
  % S (Survival): 100%
  RTV (Relative Tumor Volume): 2.22
  T/C (T (test)/C (control)): 0.67
[27]
  % S (Survival): 100%
  RTV (Relative Tumor Volume): 2.34
  T/C (T (test)/C (control)): 0.65
[28]
  % S (Survival): 100%
  RTV (Relative Tumor Volume): 2.94
  T/C (T (test)/C (control)): 0.57
[29]
  % S (Survival): 100%
  RTV (Relative Tumor Volume): 2.92
  T/C (T (test)/C (control)): 0.47
[30]
  % S (Survival): 100%
  RTV (Relative Tumor Volume): 5.30
  T/C (T (test)/C (control)): 0.65
Dosage optimization, 1 mg/kg body weight daily oral for 4 weeks
  tumor growth inhibition vs control: significantly (P<0.05) inhibited the growth of A549 tumor from day 21 onwards
Dosage optimization, 2.5 mg/kg body weight daily oral for 4 weeks
  tumor growth inhibition vs control: significantly (P<0.05) inhibited the growth of A549 tumor from day 21 onwards
Dosage optimization, 5 mg/kg body weight daily oral, experimental end point (31st day)
  tumor growth inhibition vs control: did not show any significant suppression of A549 tumor
Dosage optimization, 1, 2.5 and 5 mg/kg daily oral
  mortality: did not show any mortality
Lung model, 1 mg/kg body weight daily oral
  T/C achieved: ≤ 0.42
Oral daily
  minimum dosage to achieve optimum efficacy: 1 mg/kg body weight
